Among the test systems are T-47D breast; SK-MEL-28 melanoma; CAKI-1 renal; PC-3 prostate; UACC-62 melanoma; MDA-N; SF-268 CNS; SK-MEL-2 melanoma; LOX IMVI melanoma; HT29 colon; NCI-H23 lung; HOP-92 NSCLC; SF-295 CNS; NCI-H226 lung; UO-31 renal; NCI/ADR-RES ovarian; COLO 205 colon.
Common to all, as to assay: inhibition of tumour cell growth, NCI panel, 48 h

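Exposure lasted 48 hours, with cells grown in 96-well plates and compounds tested at five concentrations. The concentration for full growth arrest is given as TGI.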

With `COC(=O)c1c(C)cccc1/C=C1\Cc2cc(C)cc(C)c2C1=O`, the TGI in the assay with T-47D breast was > 100 µM; in the assay with SK-MEL-28 melanoma, > 100 µM; with CAKI-1 renal it was > 100 µM; in the assay with PC-3 prostate, > 100 µM; with UACC-62 melanoma, 48.6 µM; in the assay on MDA-N it was > 100 µM. Besides, the TGI was > 100 µM with SF-268 CNS; 57.3 µM in the assay on SK-MEL-2 melanoma; > 100 µM with LOX IMVI melanoma; > 100 µM in the assay on HT29 colon; > 100 µM with NCI-H23 lung; 39.4 µM in the assay with HOP-92 NSCLC. Moreover, the TGI in the assay on SF-295 CNS, in the assay on NCI-H226 lung and in the assay with UO-31 renal was > 100 µM each time.
Regarding `Cc1c(NC(=S)Nc2ccc(Cl)cc2)c(=O)n(-c2ccccc2)n1C`, the TGI with SK-MEL-28 melanoma, in the assay with CAKI-1 renal, with NCI/ADR-RES ovarian, in the assay on PC-3 prostate, in the assay with UACC-62 melanoma and with MDA-N was > 100 µM throughout. The TGI with SF-268 CNS, in the assay on LOX IMVI melanoma, in the assay on HT29 colon, in the assay with NCI-H23 lung, with HOP-92 NSCLC and in the assay on SF-295 CNS was > 100 µM each time. Further, the TGI in the assay with COLO 205 colon, in the assay with NCI-H226 lung and in the assay with UO-31 renal was > 100 µM in each case.
With `Cc1nnc2n1-c1ccccc1C(=S)N1CSCC21` (stereo not drawn), the TGI in the assay on T-47D breast, with SK-MEL-28 melanoma, with CAKI-1 renal, with NCI/ADR-RES ovarian, in the assay on PC-3 prostate and with UACC-62 melanoma was > 100 µM in each case. Further, the TGI with MDA-N, with SF-268 CNS, in the assay on SK-MEL-2 melanoma, with LOX IMVI melanoma, in the assay on HT29 colon and with SF-295 CNS was > 100 µM each time. Further, the TGI in the assay on COLO 205 colon, in the assay on NCI-H226 lung and in the assay with UO-31 renal was > 100 µM throughout.
For `COC(=O)/C=c1/c2ccccc2n2nc3ccccc3c12`, the TGI in the assay on T-47D breast, with SK-MEL-28 melanoma, with CAKI-1 renal, in the assay with NCI/ADR-RES ovarian, in the assay on PC-3 prostate and in the assay on UACC-62 melanoma was > 100 µM in each case. Moreover, the TGI in the assay with MDA-N, in the assay with SF-268 CNS, with SK-MEL-2 melanoma, in the assay with LOX IMVI melanoma, in the assay with HT29 colon and in the assay with NCI-H23 lung was > 100 µM each time. Also, the TGI with SF-295 CNS, in the assay on COLO 205 colon and in the assay on UO-31 renal was > 100 µM in each case.
As for `CC(C)C1OC(=O)/C=C/C=C/C=C/C=C/C=C/CC(O)CC(O)CC(O)CC(O)CC(O)CC(O)CC(O)CC(O)/C=C/C1C` (stereo not drawn), the TGI in the assay on SK-MEL-28 melanoma, with CAKI-1 renal, with NCI/ADR-RES ovarian, in the assay with PC-3 prostate, in the assay on MDA-N and in the assay on SF-268 CNS was > 100 µM in each case. Besides, the TGI in the assay with SK-MEL-2 melanoma, in the assay with LOX IMVI melanoma, with HT29 colon, in the assay with NCI-H23 lung, in the assay with HOP-92 NSCLC and with SF-295 CNS was > 100 µM each time. Moreover, the TGI with COLO 205 colon, in the assay on NCI-H226 lung and in the assay on UO-31 renal was > 100 µM throughout.
As to `CC(C)CCn1c(=O)c2c(=O)[nH][nH]c2c2ccccc21`, the TGI with SK-MEL-28 melanoma, with NCI/ADR-RES ovarian, with PC-3 prostate, in the assay on MDA-N, in the assay on LOX IMVI melanoma and with HT29 colon was > 100 µM in each case. For the same compound, the TGI in the assay with NCI-H23 lung, with HOP-92 NSCLC, in the assay on SF-295 CNS, with COLO 205 colon, with NCI-H226 lung and in the assay with UO-31 renal was > 100 µM each time.
In the case of `S=C1N=C(Cl)C2(NN1)c1ccccc1-c1ccccc12`, the TGI in the assay on T-47D breast, with SK-MEL-28 melanoma, in the assay with CAKI-1 renal, in the assay on NCI/ADR-RES ovarian, in the assay on UACC-62 melanoma and with MDA-N was > 10 µM in each case. Also, the TGI in the assay on SF-268 CNS, with LOX IMVI melanoma, with NCI-H23 lung, in the assay on HOP-92 NSCLC, with COLO 205 colon and in the assay with NCI-H226 lung was > 10 µM throughout. For the same compound, the TGI with UO-31 renal is > 10 µM.
In the case of `O=C(CC(C(=O)c1ccoc1)c1ccco1)c1ccco1` (stereo not drawn), the TGI in the assay with T-47D breast, with SK-MEL-28 melanoma, with CAKI-1 renal, in the assay on NCI/ADR-RES ovarian, with UACC-62 melanoma and with MDA-N was > 100 µM throughout. In addition, the TGI in the assay with SF-268 CNS, in the assay with LOX IMVI melanoma, in the assay with HT29 colon, with NCI-H23 lung, with HOP-92 NSCLC and in the assay on SF-295 CNS was > 100 µM in each case. Moreover, the TGI in the assay on COLO 205 colon, in the assay on NCI-H226 lung and with UO-31 renal was > 100 µM in each case.
In the case of `O[C@@H]1C[C@@H]2N[C@@](O)(C[C@@H]2O)[C@H]1O`, the TGI in the assay with T-47D breast, in the assay on SK-MEL-28 melanoma, in the assay on NCI/ADR-RES ovarian, with PC-3 prostate, in the assay with UACC-62 melanoma and in the assay with MDA-N was > 100 µM throughout. Moreover, the TGI with SF-268 CNS, in the assay with LOX IMVI melanoma, with HT29 colon, in the assay on NCI-H23 lung, in the assay with HOP-92 NSCLC and with SF-295 CNS was > 100 µM in each case. For the same compound, the TGI in the assay with COLO 205 colon, with NCI-H226 lung and in the assay with UO-31 renal was > 100 µM each time.
As for `CC1(C)Oc2ccc3c(=O)cc(-c4ccc(F)cc4)oc3c2C1C(=O)O` (stereo not drawn), the TGI is > 100 µM in the assay with T-47D breast; 54.6 µM with CAKI-1 renal; > 100 µM with NCI/ADR-RES ovarian; > 100 µM in the assay with PC-3 prostate; > 100 µM with UACC-62 melanoma; > 100 µM with MDA-N. The TGI with SF-268 CNS, in the assay on SK-MEL-2 melanoma, in the assay on HT29 colon, in the assay on NCI-H23 lung, with SF-295 CNS and in the assay on COLO 205 colon was > 100 µM throughout. For the same compound, the TGI in the assay with NCI-H226 lung was > 100 µM.

The values above are taken from PubChem BioAssay (NCI).
